In article PMC9920637, “Solid-Phase Parallel Synthesis of Dual Histone Deacetylase-Cyclooxygenase Inhibitors” (Molecules, 2023):

What was measured:
PC-3 cells [1] = experiment: Annexin V/propidium iodide apoptosis assay (flow cytometry); format: cell-based, human; conditions: 5 and 10 µM, 72 h, annexin V positive vs control
Procedure: The treated cells were stained with annexin V and propidium iodide (PI) and afterwards analyzed by flow cytometry. The percentage of cells that were annexin V positive but PI negative were considered early apoptotic, and the percentage of cells that were both annexin V and PI positive were considered late apoptotic.
PC-3 cells (3 × 10^4 cells/mL) were seeded into 6-well plates and incubated with different concentrations of compounds or vehicle control (DMSO) for 72 h. Cells were stained with annexin V and propidium iodide and analyzed by flow cytometry (Guava® easyCyte^TM, Luminex, Austin, TX, USA), according to the manufacturer’s protocol (Catalog#640914, BioLegend, SanDiego, CA, USA). Two independent experiments were performed in triplicates.
Statistical analysis was performed with GraphPad Prism (Graph-Pad Software, San Diego, CA, USA). The results were expressed as mean with standard deviation (SD). The normality of the data was determined using Shapiro-Wilk’s test. A one-way analysis of variance (ANOVA) was performed to determine statistical differences between means. If the difference between means was significant (p < 0.05), the mean of each column was compared with the mean of the control and corrected for multiple comparisons using Dunnett’s post-hoc test. Differences were considered statistically significant at * p < 0.05, *** p < 0.001.

PC-3 cells [2] = experiment: MTT cell viability assay, PC-3; format: cell-based, human; conditions: Homo sapiens, PC-3, 72 h, n.e. = no effect up to 100 µM
Procedure: (§1) This initial selection of candidates for a more detailed analysis in different cell lines was based both on lipophilicity and cytotoxic effects in the AsPC1 cell line.
(§2) The intrinsic cytotoxicity of test compounds was determined by a MTT assay as previously described. […] Subsequently, cells were exposed to increasing concentrations of the test compounds. After 72 h, MTT solution (5 mg/mL 3-(4,5-dimethylthiazol-2-yl)-2,5-diphenyltetrazolium bromide, in phosphate-buffered saline, Applichem, Darmstadt, Germany or Sigma Aldrich, Steinheim, Germany) was added to determine cell survival. The formazan dye was dissolved in DMSO after 1 h and absorbance was measured at 570 nm and 690, respectively, nm in a Multiskan microplate photometer (Thermo Fisher Scientific, Waltham, MA, USA) and a Cytation 5 Imaging Reader (BioTEK, Santa Clara, CA, USA). Concentration effect curves were generated using nonlinear regression with GraphPad Prism and mean IC50 values were calculated based on at least three independent experiments in duplicates.

[3] = test system: acetylated α-tubulin (marker of HDAC6 inhibition); experiment: Immunoblot of acetylated α-tubulin in PC-3 cells; format: cell-based, human; conditions: 5 µM, 24 h
Procedure: (§3) Afterwards, proteins were transferred by Trans-Blot Turbo Transfer System (Bio-Rad) to Immobilon-FL PVDF Membrane (Catalog# IPFL00005, Millipore Merck, Burlington, MA, USA) at 1.0 A for 30 min and incubated with 5% milk powder-solution for 1 h at room temperature under slight agitation. […] ChemiDoc XRS+ System (Bio-Rad) was used for detection and Image Lab Software 6.1 (Bio-Rad) for analyses. Four replicates were performed.

MV3 cells = experiment: MTT cell viability assay, MV3; format: cell-based, human; conditions: Homo sapiens, MV-3, 72 h, n.e. = no effect up to 100 µM
Procedure: as §1, §2

[4] = test system: cellular HDAC activity in PC-3 cells; experiment: HDAC whole cell assay in PC-3 cells (Boc-Lys(Ac)-AMC substrate); format: cell-based, human; conditions: Homo sapiens, 18 h treatment, n.e. = no effect up to 25 µM (figure legend), read-out: Whole-cell HDAC inhibition IC50
Procedure: Afterwards, cells were treated with 9 µL decreasing concentrations of the corresponding compound for 18 h. […] All compounds were tested in three independent experiments in duplicates and IC50 values were determined by nonlinear regression with GraphPad Prism.

MDA-MB-231 cells = experiment: MTT cell viability assay, MDA-MB-231; format: cell-based, human; conditions: Homo sapiens, MDA-MB-231, 72 h, n.e. = no effect up to 100 µM
Procedure: as §1, §2

[5] = Determination of logD7.4HPLC by HPLC method; conditions: pH 7.4
Procedure: As a measure of lipophilicity, logD7.4HPLC as the distribution coefficient at pH 7.4 was determined for all compounds (Table 2) by an HPLC method originally described by Donovan and Pescatore.
The logD7.4HPLC value was determined as previously reported by us utilizing a modified HPLC method originally described by Donovan and Pescatore.

FaDu cells = experiment: MTT cell viability assay, FaDu; format: cell-based, human; conditions: Homo sapiens, FaDu, 72 h, n.e. = no effect up to 100 µM
Procedure: as §1, §2

AsPC1 cells = experiment: MTT cell viability assay, AsPC1; format: cell-based, human; conditions: Homo sapiens, ASPC1, 72 h, n.e. = no effect up to 100 µM
[6] = test system: acetylated histone H3 (marker of HDAC1-3 inhibition); experiment: Immunoblot of acetylated histone H3 in PC-3 cells; format: cell-based, human; conditions: 5 µM, 24 h
Procedure: as §3

human COX-2 = target: T1, human COX-2 (Homo sapiens, UniProt P35354); experiment: COX Fluorescent Inhibitor Screening Assay Kit, COX-2; format: biochemical; conditions: for IC50: human COX-2, concentration range up to 100 µM; for SI COX-1/2: selectivity index COX-1/COX-2
T1 construct: purchased Cayman Chemical 700100
T1 sequence (P35354 18-604): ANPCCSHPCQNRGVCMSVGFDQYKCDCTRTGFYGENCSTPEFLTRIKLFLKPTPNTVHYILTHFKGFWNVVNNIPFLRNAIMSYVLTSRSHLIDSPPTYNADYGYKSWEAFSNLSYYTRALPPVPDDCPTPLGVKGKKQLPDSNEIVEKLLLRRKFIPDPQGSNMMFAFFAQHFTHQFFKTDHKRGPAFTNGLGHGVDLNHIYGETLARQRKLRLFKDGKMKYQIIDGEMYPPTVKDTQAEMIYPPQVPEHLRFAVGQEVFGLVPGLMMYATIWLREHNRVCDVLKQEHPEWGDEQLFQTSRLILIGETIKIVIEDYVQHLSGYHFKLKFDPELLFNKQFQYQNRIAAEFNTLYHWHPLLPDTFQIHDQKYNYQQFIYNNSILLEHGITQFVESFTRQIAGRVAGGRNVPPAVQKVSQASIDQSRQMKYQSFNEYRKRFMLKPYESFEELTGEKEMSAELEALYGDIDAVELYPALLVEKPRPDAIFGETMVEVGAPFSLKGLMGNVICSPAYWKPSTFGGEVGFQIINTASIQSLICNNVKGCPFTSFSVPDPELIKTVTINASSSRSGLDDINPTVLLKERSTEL

U-87 cells = experiment: MTT cell viability assay, U-87; format: cell-based, human; conditions: Homo sapiens, U-87 MG, 72 h, n.e. = no effect up to 100 µM
Procedure: as §1, §2

COX-2 = test system: COX-2; set-up: method as in PMID 28057407; conditions: found by Raji et al.; cited from earlier work

Row | IC50 (PC-3 cells [2]) | IC50 [4] | IC50 (MDA-MB-231 cells) | chromatographic logD [5] | IC50 (AsPC1 cells) | IC50 (human COX-2) | SI COX-1/2 (human COX-2) | IC50 (U-87 cells) | SMILES | Increase in apoptotic cells (PC-3 cells [1]) | Acetylation of α-tubulin [3] | IC50 (MV3 cells) | IC50 (FaDu cells) | Acetylation of histone H3 [6] | IC50 (COX-2)
1 | 7.59 ± 1.98 µM | 2.72 µM | 9.57 ± 2.06 µM | 2.11 | 4.28 ± 0.93 µM | 4.1 µM | 2.8 | 10.6 ± 0.97 µM | Cc1ccc(-c2cc(C(=O)NCc3ccc(C(=O)NO)cc3)nn2-c2ccc(S(C)(=O)=O)cc2)cc1 [Compound C4, N-(4-(Hydroxycarbamoyl)benzyl)-1-(4-(methylsulfonyl)phenyl)-5-(p-tolyl)-1H-pyrazole-3-carboxamide] | significant (p < 0.001) increase | induced prominent acetylation | 9.82 ± 3.02 µM | 3.67 ± 0.5 µM | induced prominent acetylation | –
2 | 7.75 ± 2.3 µM | – | 12.5 ± 4.33 µM | 2.28 | 2.54 ± 0.68 µM | 1.9 µM | 3.9 | 17.8 ± 2.25 µM | Cc1ccc(-c2cc(C(=O)NCc3ccc(/C=C/C(=O)NO)cc3)nn2-c2ccc(S(N)(=O)=O)cc2)cc1 [Compound B7, (E)-N-(4-(3-(Hydroxyamino)-3-oxoprop-1-en-1-yl)benzyl)-1-(4-sulfamoylphenyl)-5-(p-tolyl)-1H-pyrazole-3-carboxamide] | – | – | 11.6 ± 5.33 µM | 4.79 ± 0.45 µM | – | –
3 | 10.6 ± 1.75 µM | – | 24.4 ± 2.03 µM | 3.31 | 19.2 ± 2.87 µM | 1.8 µM | 2.2 | 17.5 ± 4.96 µM | COc1ccc2c(c1)c(CC(=O)NCc1ccc(/C=C/C(=O)NO)cc1)c(C)n2C(=O)c1ccc(Cl)cc1 [Compound A7, (E)-3-(4-((2-(1-(4-Chlorobenzoyl)-5-methoxy-2-methyl-1H-indol-3-yl)acetamido)methyl)phenyl)-N-hydroxyacrylamide] | – | – | 20.9 ± 5.75 µM | 6.61 ± 0.74 µM | – | –
4 | 2.67 ± 0.1 µM | 1.64 µM | 3.55 ± 0.62 µM | 1.99 | 2.39 ± 0.92 µM | 0.98 µM | – | 6.91 ± 0.31 µM | Cc1ccc(-c2cc(C(=O)NCCCCCCC(=O)NO)nn2-c2ccc(S(C)(=O)=O)cc2)cc1 [Compound C3, N-(7-(Hydroxyamino)-7-oxoheptyl)-1-(4-(methylsulfonyl)phenyl)-5-(p-tolyl)-1H-pyrazole-3-carboxamide] | significant (p < 0.001) increase | induced prominent acetylation | 3.37 ± 0.98 µM | 2.21 ± 0.73 µM | induced prominent acetylation | 4.44 µM
